Earlier results, collected in patent publication US8080647B2 (priority 2006, dated 2011).

B1: lactose repressor: repressor protein of the E. coli lactose operon (protein, UniProt P03023 1-360, looked up)
Lactose operon repressor: MKPVTLYDVAEYAGVSYQTVSRVVNQASHVSAKTREKVEAAMAELNYIPNRVAQQLAGKQSLLIGVATSSLALHAPSQIVAAIKSRADQLGASVVVSMVERSGVEACKAAVHNLLAQRVSGLIINYPLDDQDAIAVEAACTNVPALFLDVSDQTPINSIIFSHEDGTRLGVEHLVALGHQQIALLAGPLSSVSARLRLAGWHKYLTRNQIQPIAEREGDWSAMSGFQQTMQMLNEGIVPTAMLVANDQMALGAMRAITESGLRVGADISVVGYDDTEDSSCYIPPLTTIKQDFRLLGQTSVDRLLQLSQGQAVKGNQLLPVSLVKRKTTLAPNTQTASPRALADSLMQLARQVSRLESGQ

How the values were obtained:
lac repressor = lac repressor (Escherichia coli, UniProt P03023)
[1] = tested on: lac operator-repressor system; details: Ulmasov et al. 1997

| Molecule | toxicity of the inducing agent (cells) | reduction of the affinity of lac repressor for the operator (lac repressor) [fold] | repression reported [1] [fold] |
| --- | --- | --- | --- |
| CC(C)S[C@@H]1O[C@H](CO)[C@H](O)[C@H](O)[C@H]1O [IPTG, isopropyl-B-D-thiogalactopyranoside] | cytotoxic | 300 | – |
| B1 | – | – | 30 |
